Reference: patent US20060154895A1, “Method of treating acquired immunedeficiency syndrome” (priority 2004, published 2006)

Tests used:
T-cells = test: Blood T-cell levels after curdlan sulfate alone in HIV infected patients; assay type: in vivo, human; details: curdlan sulfate administered by itself to HIV infected patients
Description: The present invention provides a treatment method for HIV infections that is designed to completely eradicate the HIV virus. […] The reappearance of HIV virus in the blood after the interruption of current therapies makes it likely that the HIV virus is capable of being retained in some biological reservoir where current therapies are unable to create an environment that inhibits or destroys the HIV virus. […] The large increase in T-cells is believed to be due to a release or flushing of T-cells from a biological repository or storage site rather than a biological production of new T-cells. This phenomenon has caused the applicants to theorize that the repository or storage site for the T-cells is also a sanctuary for the HIV virus which appears to have an ability to shield itself from the effects of anti-HIV drugs which are circulated in the blood to all of the bodies organs. The invention is directed to the administration of an entry/fusion inhibitor after a HAART drug combination has been administered in an effective amount for a sufficient time to cause the HIV cells to been eradicated from the blood stream. Thereafter, the entry/fusion inhibitor is administered in an effective amount for a sufficient period of time to eradicate the HIV cells.

[1] = Tolerance screening: daily IV dose escalation of curdlan sulfate until APTT is doubled (MTD); assay type: in vivo, human; details: IV infusion, HIV positive patients
Protocol: Patients are selected for treatment with the method of the invention based on the fact that they have previously tested positive for HIV and presently have some detectable level of HIV. Initially, the patients are screened for the effect of curdlan sulfate on coagulation times by measuring the time to coagulation using the activated partial thromboplastin time test (APTT) after IV infusion of 50 mg of curdlan sulfate in over a period of 30 minutes. A test dose of […] of curdlan sulfate is given on the first day and each day thereafter, the dose of curdlan sulfate is increased in 50 mg increments until the APTT is doubled. […] When the MTD is determined for each patient, the MTD is repeated daily for 21 days while the particular dosage regimen of the HAART drugs is continued. After the 21 days of curdlan sulfate therapy is completed, the HAART treatment regimen is also suspended and the viral load is determined daily. If there is no measurable viral load after this treatment, the treatment is deemed to be successful. If the viral load returns to measurable levels for three days, the HAART therapy may be reinstituted followed by another sequence of curdlan sulfate therapy.

In the case of curdlan sulfate, the “detectable blood levels of T-cells” value (T-cells) is reported as “large increases in detectable bloods levels of T-cells” and the “bleeding at the MTD” value [1] is reported as “no bleeding at the site of injection or elsewhere is detected”.
